From patent publication US8946426B2, “Substituted bicyclic heterocyclic compounds as gamma secretase modulators” (Janssen Pharmaceuticals, Inc., priority 2009, dated 2015)

Legend:
[1] = system: Aβ42; assay: Method 1: Aβ42 sandwich ELISA in supernatant of SKNBE2 cells carrying APP 695-wild type (Tables 7a, 7b); type: cell-based
Method: (§1) Screening was carried out using SKNBE2 cells carrying the APP 695-wild type, grown in Dulbecco's Modified Eagle's Medium/Nutrient mixture F-12 (DMEM/NUT-mix F-12) (HAM) provided by Gibco (cat no. 31330-38) containing 5% Serum/Fe supplemented with 1% non-essential amino acids. Cells were grown to near confluency.
(§2) The screening was performed using the assay as described in Citron et al (1997) Nature Medicine 3: 67. Briefly, cells were plated in a 96-well plate at about 10^5 cells/ml one day prior to addition of compounds. Compounds were added to the cells in Ultraculture (Lonza, BE12-725F) supplemented with 1% glutamine (Invitrogen, 25030-024) for 18 Hours. The media were assayed by two sandwich ELISAs, for Aβ42 and Aβtotal. Toxicity of the compounds was assayed by WST-1 cell proliferation reagent (Roche, 1 644 807) according to the manufacturer's protocol.
To quantify the amount of Aβ42 in the cell supernatant, commercially available Enzyme-Linked-Immunosorbent-Assay (ELISA) kits were used (Innotest® β-Amyloid(1-42), Innogenetics N.V., Ghent, Belgium). The Aβ42 ELISA was performed essentially according to the manufacturer's protocol. Briefly, the standards (dilutions of synthetic Aβ1-42) were prepared in polypropylene Eppendorf with final concentrations of 8000 down to 3.9 pg/ml (½ dilution step). Samples, standards and blanks (100 μl) were added to the anti-Aβ42-coated plate supplied with the kit (the capture antibody selectively recognizes the C-terminal end of the antigen). The plate was allowed to incubate 3 H at 25° C. in order to allow formation of the antibody-amyloid complex. Following this incubation and subsequent wash steps a selective anti-Aβ-antibody conjugate (biotinylated 3D6) was added and incubated for a minimum of 1 Hour in order to allow formation of the antibody-Amyloid-antibody-complex. After incubation and appropriate wash steps, a Streptavidine-Peroxidase-Conjugate was added, followed 30 minutes later by an addition of 3,3′,5,5′-tetramethylbenzidine (TMB)/peroxide mixture, resulting in the conversion of the substrate into a coloured product. This reaction was stopped by the addition of sulfuric acid (0.9 N) and the colour intensity was measured by means of photometry with an ELISA-reader with a 450 nm filter.
(§3) To obtain the values reported in Table 7a, the sigmoidal dose response curves were analysed by computerised curve-fitting, with percent of inhibition plotted against compound concentration. A 4-parameter equation (model 205) in XLfit was used to determine the IC50. The top and the bottom of the curve were fixed to 100 and 0, respectively, and the hill slope was fixed to 1. The IC50 represents the concentration of a compound that is required for inhibiting a biological effect by 50% (Here, it is the concentration where Aβ peptide level is reduced by 50%).
(§4) To obtain the values reported in Table 7b, the data were calculated as percentage of the maximum amount of amyloid Beta 42 measured in the absence of the test compound. The sigmoidal dose response curves were analyzed using non-linear regression analysis with percentage of the control plotted against the log concentration of the compound. A 4-parameter equation was used to determine the IC50. The values reported in Table 7b are averaged IC50 values.

[2] = system: Aβtotal; assay: Method 1: Aβtotal sandwich ELISA in supernatant of SKNBE2 cells carrying APP 695-wild type (Tables 7a, 7b); type: cell-based
Method: as §1, §2
To quantify the amount of Aβtotal in the cell supernatant, samples and standards were added to a 6E10-coated plate. The plate was allowed to incubate overnight at 4° C. in order to allow formation of the antibody-amyloid complex. Following this incubation and subsequent wash steps a selective anti-Aβ-antibody conjugate (biotinylated 4G8) was added and incubated for a minimum of 1 Hour in order to allow formation of the antibody-Amyloid-antibody-complex. After incubation and appropriate wash steps, a Streptavidine-Peroxidase-Conjugate was added, followed 30 minutes later by an addition of Quanta Blu fluorogenic peroxidase substrate according to the manufacturer's instructions (Pierce Corp., Rockford, Ill.).
as §3, §4

[3] = Table 7b, averaged IC50, non-linear regression of percentage of control vs log concentration, 4-parameter equation
[4] = Homo sapiens, SKNBE2, Table 7b, averaged IC50, non-linear regression of percentage of control vs log concentration, 4-parameter equation
[5] = Homo sapiens, Table 7a, SKNBE2 cells, compounds 18 h, XLfit 4-parameter fit of percent inhibition, top/bottom fixed to 100/0, hill slope 1
[6] = Table 7a, SKNBE2 cells, compounds 18 h, XLfit 4-parameter fit of percent inhibition, top/bottom fixed to 100/0, hill slope 1

| Compound | IC50 [1, 3] [µM] | IC50 [2, 3] [µM] | further results |
| --- | --- | --- | --- |
| COCCn1c(C)nc2c(Nc3ccc(-c4cnc(C)s4)c(OC)c3)cccc21 [Compound 37] | 0.38 | > 3 |  |
| COc1cc(Nc2cccc3c2nc(-c2ccc(F)cc2)n3C)ccc1-c1ncnn1C [Compound 75] | 1.15 | > 3 |  |
| C=C(C)c1c(-c2ccc(F)cc2)nc2c(Nc3ccc(-c4cnc(C)o4)cc3)cccn12 [Compound 177] |  |  | IC50 [1, 4]: 0.105 µM; IC50 [2, 4]: > 3 µM |
| COc1cc(Nc2nccc3c2nc(CCC(F)(F)F)n3C)ccc1-c1cnc(C)o1 [Compound 91] | 1.45 | 66.1 |  |
| COc1cc(Nc2cc(CN)cc3c2nc(-c2ccc(F)cc2)n3C)ccc1-c1ocnc1C [Compound 120] |  |  | IC50 [1, 4]: 0.324 µM; IC50 [2, 4]: > 3 µM |
| Cc1ncc(-c2ccc(Nc3nccc4c3nc(-c3ccc(F)cc3F)n4C)cc2)o1 [Compound 53] | 1.91 | > 10 |  |
| COc1cc(Nc2nc(C3CC3)cn3cc(C)nc23)ccc1-c1ocnc1C [Compound 153] | 1.32 | > 3 |  |
| COc1cc(Nc2cccn3cc(-c4ccc(F)cc4)nc23)ccc1-c1oc(C)nc1C [Compound 7] |  |  | IC50 [1, 4]: 0.302 µM; IC50 [1, 5]: 0.334 µM; IC50 [2, 4]: > 10 µM; IC50 [2, 5]: > 10 µM |
| COc1cccc(-c2nc3c(Nc4ccc(-c5ocnc5C)c(OC)c4)cc(C#N)cc3n2C)c1 [Compound 122] | 0.038 | > 3 |  |
| Cc1ccc(-c2cn3cccc(Nc4ccc(-c5ocnc5C)nc4)c3n2)c(F)c1 [Compound 45] | 0.813 | > 30 | IC50 [1, 6]: 0.848 µM; IC50 [2, 6]: > 30 µM |
| Cc1ncc(-c2ccc(Nc3nccc4c3nc(-c3ccc(F)cc3)n4C)cc2)o1 [Compound 23] | 0.398 | > 3 | IC50 [1, 6]: 0.417 µM; IC50 [2, 6]: > 3 µM |
| Cc1ncc(-c2ccc(Nc3cccc4c3nc(-c3ccc(F)cc3)n4C)cn2)o1 [Compound 29] | 0.028 | > 3 | IC50 [1, 6]: 0.029 µM; IC50 [2, 6]: > 3 µM |
| Cn1cc(-c2ccc(Nc3cccc4c3nc(-c3ccc(F)cc3)n4C)cc2)cn1 [Compound 67] | 0.065 | > 3 |  |
| Cc1ncc(-c2ccc(Nc3cc(C(F)(F)F)cc4c3nc(C3CCOCC3)n4C)cc2)o1 [Compound 100] | 2.24 | 25.1 |  |
| COc1cc(-c2nc3c(Nc4ccc(-c5ocnc5C)cn4)cccc3n2C)ccc1Cl [Compound 33] | 0.141 | > 10 | IC50 [1, 6]: 0.102 µM; IC50 [2, 6]: > 10 µM |
| COc1cc(Nc2cc(C(F)(F)F)cn3c(C)c(C)nc23)ccc1-c1ocnc1C [Compound 142] | 0.468 | > 10 |  |
| COc1cc(Nc2nc(C)cc3c2nc(-c2cccc(OC(C)C)c2)n3C)ccc1-c1cnc(C)o1 [Compound 102] | 0.024 | > 3 |  |
| COc1cccc(-c2nc3c(Nc4ccc(-c5cnc(C)o5)nc4)cc(C#N)cc3n2C)c1 [Compound 103] | 0.036 | > 3 |  |
| COc1cc(Nc2cc(C)nc3c2nc(-c2ccc(F)cc2)n3C)ccc1-c1cnc(C)o1 [Compound 193] | 0.019 | > 3 |  |
| COc1cccc(-c2nc3c(Nc4ccc(-c5cnc(C)o5)cc4)nc(C)cc3n2C)c1 [Compound 98] | 0.071 | > 3 |  |
| COc1cc(Nc2nc(C)cc3c2nc(C2CCOCC2)n3C)ccc1-c1cnc(C)o1 [Compound 92] | 2.57 | > 3 |  |
| Cc1ccc(C(F)(F)F)cc1-c1cn2cccc(Nc3ccc(-c4ocnc4C)nc3)c2n1 [Compound 51] | 0.072 | > 3 |  |
| COc1cc(Nc2cc(C#N)cc3c2nc(-c2ccc(F)cc2)n3C)ccc1-c1ocnc1C [Compound 123] | 0.026 | > 1 |  |
| COc1cc(Nc2nccc3c2nc(-c2ccc(F)cc2F)n3C)ccc1-c1cnc(C)s1 [Compound 78] | 0.275 | > 3 |  |

| Compound | IC50 [1, 3] [µM] | IC50 [2, 3] [µM] | further results |
| --- | --- | --- | --- |
| Cn1nccc1-c1ccc(Nc2cccc3c2nc(-c2ccc(F)cc2)n3C)cc1 [Compound 72] | 0.955 | > 3 |  |
| COc1cccc(-c2nc3c(Nc4ccc(-c5cnc(C)o5)c(F)c4)nccc3n2C)c1 [Compound 109] | 0.145 | 2.82 |  |
| COc1cc(Nc2cccn3c(C)c(C)nc23)ccc1-c1ocnc1C [Compound 144] | 0.468 | 13.8 |  |
| Cc1ncoc1-c1ccc(Nc2cccc3c2nc(-c2ccc(F)cc2)n3C(C)(C)C)cn1 [Compound 34] | 0.11 | > 3 | IC50 [1, 6]: 0.016 µM; IC50 [2, 6]: > 3 µM |
| Cc1ccc(-c2cn3cccc(Nc4ccc(-c5cnc(C)o5)cc4)c3n2)c(F)c1 [Compound 47] | 0.447 | > 3 | IC50 [1, 6]: 0.486 µM; IC50 [2, 6]: > 3 µM |
| COc1cc(Nc2cccn3cc(C4CCOCC4)nc23)ccc1-c1ocnc1C [Compound 155] | 0.389 | 14.8 |  |
| Cc1ncoc1-c1ccc(Nc2cccn3cc(C4CC4)nc23)cn1 [Compound 160] | 0.138 | > 3 |  |
| Cc1ncc(-c2ccc(Nc3nc(Br)cn4cc(-c5ccc(F)cc5C)nc34)cc2)o1 [Compound 60] | 3.02 | > 3 |  |
| Cc1cc(F)ccc1-c1cn2cccc(Nc3ccc(-c4ocnc4C)nc3)c2n1 [Compound 44] | 0.138 | > 10 | IC50 [1, 6]: 0.14 µM; IC50 [2, 6]: > 10 µM |
| Cc1ncc(-c2ccc(Nc3cc(F)cn4cc(CC(C)C)nc34)cc2)o1 [Compound 178] | 0.085 | > 3 |  |
| Cc1ncc(-c2ccc(Nc3cc(F)cn4cc(-c5ccc(F)cc5C)nc34)cc2)o1 [Compound 176] | 0.041 | > 3 |  |
| Cc1ncoc1-c1ccc(Nc2nccc3c2nc(-c2ccccc2Cl)n3C)cn1 [Compound 117] | 0.724 | > 10 |  |
| COc1cc(Nc2cc(C3CC3)nc3c2nc(-c2ccc(F)cc2)n3C)ccc1-c1cnc(C)o1 [Compound 192] | 0.013 | > 3 |  |
| Cc1ncc(-c2ccc(Nc3nccc4c3nc(-c3ccc(F)cc3F)n4C)cc2F)o1 [Compound 55] | 3.02 | > 10 |  |
| COc1cc(Nc2cccc3c2nc(-c2ccc(F)cc2)n3C(C)C)ccc1-c1cnc(C)s1 [Compound 77] | 0.043 | > 3 |  |
| Cc1ncoc1-c1ccc(Nc2cc(F)cc3c2nc(-c2ccccc2Cl)n3C)cn1 [Compound 114] | 0.072 | > 3 |  |
| Cn1cc(-c2ccc(Nc3cccc4c3nc(-c3ccc(F)cc3)n4C)cn2)cn1 [Compound 70] | 0.076 | > 3 |  |
| COc1cccc(-c2nc3c(Nc4ccc(-c5cn(C)nc5C)c(OC)c4)cccn3c2C)c1 [Compound 6] |  |  | IC50 [1, 4]: 0.102 µM; IC50 [1, 5]: 0.077 µM; IC50 [2, 4]: > 3 µM; IC50 [2, 5]: > 3 µM |
| CCn1c(CC2CC2)nc2c(Nc3ccc(-c4cnc(C)o4)c(OC)c3)cccc21 [Compound 64] | 0.068 | > 3 |  |
| Cc1ncc(-c2ccc(Nc3cc(F)cc4c3nc(N3CCCC3)n4C)cc2)o1 [Compound 90] | 1.1 | > 3 |  |
| COc1cccc(-c2nc3c(Nc4ccc(-c5cnc(C)o5)cc4)cccc3n2C(C)C)c1 [Compound 21] | 0.009 | > 3 |  |
| COc1cc(Nc2cncc3c2nc(-c2ccc(F)cc2)n3C)ccc1-c1ocnc1C [Compound 199] | 0.24 | > 30 |  |
| COc1cc(-c2nc3c(Nc4ccc(-c5cnc(C)o5)c(OC)c4)cccc3n2C)ccc1Cl [Compound 62] | 0.009 | > 3 |  |
